One compound from US20230338363A1, “COMBINATION CHEMO-IMMUNOTHERAPY FOR PANCREATIC CANCER USING THE IMMUNOGENIC EFFECTS OF AN IRINOTECAN SILICASOME NANOCARRIER PLUS ANTI-PD-1” (The Regents of the University of California, priority 2020, published 2023) can be followed below.

Experiment [1] has as its system KPC cells. The experiment is described as follows: ER stress: CHOP and cleaved caspase-3 western blotting, total ROS, intracellular Ca2+ flux. Format: cell-based, mouse. To be noted: 24 h. Here is the method:
Intracellular ROS production was determined by a fluorescence-based ROS Kit (Abcam, ab186027) in KPC cells. This assay measures total ROS species according to vendor’s instructions. This assay is frequently used in cell biology to show the contribution of ROS in the context of ER stress and autophagy^3. Briefly, KPC cells were treated with IRIN (300 µM), OX (500 µM) or TUN (10 µM) for 24 h. Images were captured using a fluorescence microscope. Signal intensity was quantified by Image J software. At least three representative images were analyzed for each treatment. Data represents mean ± SD, n=3. *p<0.05, ***p<0.001, compared to PBS group (1-way ANOVA followed by a Tukey’s test). Bar is 50 µm.
Intracellular Ca^2+ flux was assessed by a Fluo 4 AM assay in KPC cells. The cells were treated with IRIN (300 µM), OX (500 µM) or TUN (10 µM) for 24 h. Images were captured using a fluorescence microscope, followed by data analysis using the Image J software. At least three representative images were analyzed for each treatment. Data represents mean ± SD, n=3. **p<0.01, ***p<0.001, compared to PBS group (1-way ANOVA followed by a Tukey’s test). Bar is 50 µm.
KPC cells were treated with IRIN silicasome at drug dose of 75 µM and 300 µM for 24 hours. PBS and empty silicasome (that is equivalent to drug dose of 300 µM) were included as control. Ca^2+ efflux (panel A) and total ROS (panel B) measurements were performed similar to FIGS. 14 and 15. Data represents mean ± SD, n=3. *p<0.05, **p<0.001, n.s., not significant (1-way ANOVA followed by a Tukey’s test). Panel C) In a separate experiment, KPC cells were seeded in to a 6-well plate, followed by the treatment using silicasome w/wo IRIN (300 µM) for 48 hours. ER marker, CHOP protein, was assayed by western blotting similar to FIG. 2, panel A
Western blotting was also used to detect the ER stress marker, CHOP, and Cleaved Caspase-3 (CC-3). In this case, KPC cells were treated with IRIN at the indicated concentrations (75- 600 µM) for 24 h. In a separate experiment, KPC cells were treated with IRIN (300 µM) and tunicamycin (10 µM) for 4 h. Primary antibodies were purchased from Cell Signaling Technology: β-actin (#3700), vinculin (#13901), CHOP (#2895), and Cleaved Caspase-3 (#9664).

For experiment [2], the system named is KPC cells. In words: Autophagy (LC3B, p62) and PD-L1 expression by IF staining and immunoblotting. It counts as cell-based, mouse. Here is the method:
KPC cells were seeded in the µ-Slide 8 well. After cell attachment, the cells were treated by IRIN at 300 µM for 24 h. Control treatments included exposure to PBS, chloroquine (32 µM), rapamycin (100 nM) and IFN-γ (10 ng/ml). Before IF staining, the cells were washed with PBS and fixed with 4% paraformaldehyde at RT for 15 minutes. Cells were treated in 1% BSA (blocking reagent) plus 0.2% triton-X100 in PBS for 30 minutes. Subsequently, the cells were incubated with primary antibody that recognizes LC3B (Cell Signaling #2775, 1:200) or p62/SQSTM1 (Cell Signaling #23214, 1:800) in 1% BSA containing PBS solution at 4° C. overnight. The sample was washed twice in PBS and further stained using an Alexa Fluor® 488 conjugated goat anti-rabbit secondary antibody (Thermo Fisher, A-11008, 1:1000) and 5 µg/mL Hoechst 33342 dye for 1 h. Cell surface staining for PD-L1 assessment was carried out in fixed (4% paraformaldehyde) cells, using a staining process similar to the above protocol. Primary PD-L1 antibody (Abcam, ab213480, 1: 500) and Alexa Fluor® 594 conjugated goat anti-rabbit secondary antibody (Thermo Fisher, A-11012, 1:1000) were used. The cells were visualized using a Leica SP8-MD confocal microscope under the 100x objective lens.
To confirm the confocal staining results for LC3B, p62 and PD-L1, western blotting experiments were performed in KPC cells exposed to IRIN (300 µM) or OX (500 µM) for 24 hr. Another experiment also looked at the dose-dependent effect of IRIN at concentrations of 75, 150, 300 and 600 µM for 24 h. Briefly, ~2×10^5 KPC cells per well were seeded in 6 well-plates. After drug exposure, KPC cells were harvested and treated with cold RIPA lysis buffer (Cell Signaling # 9806S), supplemented with a cocktail of protease and phosphatase inhibitors (Cell Signaling #5872) and incubated on ice for 30 mins. After centrifugation of the lysates at 12,000 rpm for 10 min, protein concentration was quantified by a Bradford assay (Biorad). Equal amounts of protein in the supernatants were loaded onto a 10-20% Tris-glycine SDS-PAGE gel (Invitrogen, Grand Island, NY). The proteins were subsequently transferred to a PVDF membrane. The membrane was blocked with 5% non-fat dry milk/TBST, before incubation with primary and HRP-conjugated secondary antibodies. The primary antibodies included: LC3B (Cell Signaling #2775), p62/SQSTM1 (Cell Signaling #5114), NF-κB p65 (Cell Signaling #8242), Phospho-NF-xB p65 (Cell Signaling #3033) and PD-L1 (Abcam, ab213480). The blots were developed by soaking in ECL substrate (Thermo Fisher Scientific). Densitometric analysis of each protein band on the film was quantified by ImageJ software and normalized to the intensity of a corresponding housekeeping protein.
The of the IRIN silicasome on lysosomal alkalization was performed at drug concentrations of 75 µM and 300 µM in KPC cells. Empty silicasomes (in which a 500 µg/mL particle dose is representative of an encapsulated IRIN dose of 300 µM) was included as control. The assessment of LC3B, p62 and PD-L1 immunoblotting and IF staining were performed in KPC cells during treatment with the IRIN silicasome or empty silicasomes, as described for the free drug.
For orientation: Immunoblotting shows a protein as a band on a membrane.

Where a name gives a salt, the structure may show the parent alone.

As for `CCc1c2c(nc3ccc(OC(=O)N4CCC(N5CCCCC5)CC4)cc13)-c1cc3c(c(=O)n1C2)COC(=O)[C@]3(O)CC` [IRIN, Irinotecan hydrochloride trihydrate], in the experiment on KPC cells [1] (IRIN 300 µM), the “intracellular Ca2+ release (Fluo-4 AM assay)” value is “response profile similar to ROS production” and the “total ROS production” value is “robust generation ROS production”. In the experiment with KPC cells [1] (IRIN 75-600 µM), the “CHOP expression (immunoblotting)” value was “sizable and dose-dependent increase in CHOP expression”; the “cleaved caspase-3 (CC-3) expression” value is reported as “increased expression of cleaved caspase-3”. For the same compound, the “IF staining of LC3B and p62/SQSTM1 complexes” value in the experiment with KPC cells [2] (24 h, IRIN 300 µM, CQ 32 µM, RAP 100 nM) is “contemporaneous appearance of fluorescent LC3B puncta as well as p62 protein complexes”. Moreover, in the experiment with KPC cells [2] (IRIN 300 µM or OX 500 µM, 24 h), the PD-L1 expression entry was “robust cell surface expression of PD-L1”; the “autophagy flux (Western blotting of LC3 and p62)” value was “inhibited autophagy flux”. Besides, in the experiment on KPC cells [2] (IRIN 300 µM, 24 hrs), the “phosphorylation of p65 NF-κB subunit” value is on record as “induce the phosphorylation of the p65 (p-p65) subunit of NF-κB”. Further, the “ratio of LC3-II vs. LC3-I expression (immunoblotting)” value with KPC cells [2] (IRIN 75-600 µM, 24 h) was “dose-dependent increase”.
